Source: ChEMBL document CHEMBL1817626, “The structure-activity relationship of urea derivatives as anti-tuberculosis agents” (Bioorg Med Chem, 2011)
Values after ≈ are worked out from the molar mass of the structure shown.

Legend:
[1] = tested on: Escherichia coli; assay: Antibacterial activity against Escherichia coli […] TolC; format: functional
[2] = tested on: Vero; assay: Cytotoxicity against african green monkey Vero cells after 72 hrs by MTT assay; format: cell-based; details: Chlorocebus sabaeus
[3] = tested on: Mycobacterium tuberculosis; assay: microbe, parasite or virus in culture; details: H37Rv, 168 h
[4] = tested on: Enterococcus faecalis; assay: Antibacterial activity against Enterococcus faecalis; format: functional
[5] = biological target: T1, Epoxide hydrolase B (Mycobacterium tuberculosis) (UniProt P95276); assay: Inhibition of Mycobacterium tuberculosis recombinant EphB expressed in Escherichia coli BL21 using CMNPC as substrate at 10 nM after 30 mins by fluorescent assay relative to control
T1 sequence (whole entry): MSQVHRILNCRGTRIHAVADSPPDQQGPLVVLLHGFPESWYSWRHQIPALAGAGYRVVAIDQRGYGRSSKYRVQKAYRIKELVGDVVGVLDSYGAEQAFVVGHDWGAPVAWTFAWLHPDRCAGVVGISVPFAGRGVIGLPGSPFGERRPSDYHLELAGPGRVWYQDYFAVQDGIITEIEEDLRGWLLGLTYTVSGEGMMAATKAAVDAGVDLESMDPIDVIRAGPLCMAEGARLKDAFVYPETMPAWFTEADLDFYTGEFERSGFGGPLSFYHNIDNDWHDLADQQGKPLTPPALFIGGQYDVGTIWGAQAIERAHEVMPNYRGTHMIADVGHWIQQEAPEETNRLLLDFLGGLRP

[6] = biological target: T2, Bifunctional epoxide hydrolase 2 (Homo sapiens, UniProt P34913); assay: Inhibition of human recombinant soluble epoxide hydrolase using CMNPC as substrate after 10 mins by fluorescent assay
T2 sequence (P34913 whole entry): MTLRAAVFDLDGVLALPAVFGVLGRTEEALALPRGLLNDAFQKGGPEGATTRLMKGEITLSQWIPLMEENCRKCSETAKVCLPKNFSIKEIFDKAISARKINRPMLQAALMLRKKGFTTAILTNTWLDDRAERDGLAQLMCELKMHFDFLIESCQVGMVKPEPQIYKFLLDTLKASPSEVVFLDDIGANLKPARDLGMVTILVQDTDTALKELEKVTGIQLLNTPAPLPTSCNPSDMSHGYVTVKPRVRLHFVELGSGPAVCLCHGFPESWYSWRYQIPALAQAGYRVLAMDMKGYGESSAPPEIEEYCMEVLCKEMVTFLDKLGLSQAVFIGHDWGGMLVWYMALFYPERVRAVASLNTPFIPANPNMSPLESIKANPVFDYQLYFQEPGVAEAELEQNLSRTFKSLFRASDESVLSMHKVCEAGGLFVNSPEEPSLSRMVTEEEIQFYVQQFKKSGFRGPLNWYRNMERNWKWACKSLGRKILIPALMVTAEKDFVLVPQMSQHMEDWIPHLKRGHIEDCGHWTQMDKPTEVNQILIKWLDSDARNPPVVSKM

[7] = tested on: Enterococcus faecium; assay: Antibacterial activity against Enterococcus faecium; format: functional
[8] = tested on: Escherichia coli; assay: Antibacterial activity against Escherichia coli K12; format: functional; details: K-12
[9] = tested on: Staphylococcus aureus; assay: Antibacterial activity against Staphylococcus aureus; format: functional
[10] = tested on: Klebsiella pneumoniae; assay: Antibacterial activity against Klebsiella pneumoniae; format: functional
[11] = tested on: Mycolicibacterium smegmatis; assay: microbe, parasite or virus in culture; details: str. MC2 155, 168 h
[12] = biological target: T3, Hydrolase, alpha/beta hydrolase fold family (Mycobacterium tuberculosis) (UniProt O69638); assay: Inhibition of Mycobacterium tuberculosis recombinant EphE expressed in Escherichia coli BL21 using CMNPC as substrate at 10 nM after 30 mins by fluorescent assay relative to control
T3 sequence (whole entry): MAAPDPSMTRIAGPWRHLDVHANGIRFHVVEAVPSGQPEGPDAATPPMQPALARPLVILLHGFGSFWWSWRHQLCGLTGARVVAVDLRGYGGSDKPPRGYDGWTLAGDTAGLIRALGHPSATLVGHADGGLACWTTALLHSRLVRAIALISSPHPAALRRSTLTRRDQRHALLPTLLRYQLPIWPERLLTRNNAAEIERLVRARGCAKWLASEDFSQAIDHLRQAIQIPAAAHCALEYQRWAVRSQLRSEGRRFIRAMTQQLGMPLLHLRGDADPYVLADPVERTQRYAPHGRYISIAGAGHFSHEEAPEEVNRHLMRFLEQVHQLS

[13] = tested on: Bacillus anthracis; assay: microbe, parasite or virus in culture
[14] = tested on: Pseudomonas aeruginosa; assay: Antibacterial activity against Pseudomonas aeruginosa; format: functional

Row | SMILES | MIC [1] | IC50 [2] | MIC [3] | MIC [4] | inhibition [5] | IC50 [6] | MIC [7] | MIC [8] | MIC [9] | MIC [10] | MIC [11] | inhibition [12] | MIC [13] | MIC [14]
1 | Cc1ccc(NC(=O)NCc2cccc(F)c2)cc1Cl | > 200 µg/mL | 342 µg/mL (≈ 1170 µM) | 6 µg/mL (≈ 20.5 µM) | > 200 µg/mL | 18.6% | 16.6 nM | > 200 µg/mL | > 200 µg/mL | > 200 µg/mL | > 200 µg/mL | > 200 µg/mL | 19% | > 200 µg/mL | > 200 µg/mL
2 | CC(C)OCCNC(=O)NC12CC3CC(CC(C3)C1)C2 | > 200 µg/mL | 6.4 µg/mL (≈ 22.8 µM) | 25 µg/mL (≈ 89.2 µM) | > 200 µg/mL | 11.9% | 260 nM | > 200 µg/mL | > 200 µg/mL | > 200 µg/mL | > 200 µg/mL | 200 µg/mL (≈ 713 µM) | 14.7% | > 200 µg/mL | > 200 µg/mL
3 | CCCNC(=O)NC1C2CC3CC(C2)CC1C3 (stereo not given) | > 200 µg/mL | 171 µg/mL (≈ 723 µM) | 12.5 µg/mL (≈ 52.9 µM) | > 200 µg/mL | 51.9% | 61.4 nM | > 200 µg/mL | > 200 µg/mL | > 200 µg/mL | > 200 µg/mL | 200 µg/mL (≈ 846 µM) | 73.6% | > 200 µg/mL | > 200 µg/mL
4 | Cc1ccc(NC(=O)NC2CCCCCCC2)cc1Cl | > 200 µg/mL | > 400 µg/mL | 0.01 µg/mL (≈ 0.0339 µM) | > 200 µg/mL | 83.6% | 0.4 nM | > 200 µg/mL | > 200 µg/mL | > 200 µg/mL | > 200 µg/mL | 0.8 µg/mL (≈ 2.71 µM) | 98.2% | > 200 µg/mL | > 200 µg/mL
5 | Cc1ccc(NC(=O)NCC23CC4CC(CC(C4)C2)C3)cc1Cl | > 200 µg/mL | 4.34 µg/mL (≈ 13 µM) | 0.02 µg/mL (≈ 0.0601 µM) | > 200 µg/mL | 33.9% | 0.4 nM | > 200 µg/mL | > 200 µg/mL | > 200 µg/mL | > 200 µg/mL | 0.8 µg/mL (≈ 2.4 µM) | 94.1% | > 200 µg/mL | > 200 µg/mL
6 | O=C(NCC12CC3CC(CC(C3)C1)C2)Nc1ccc(F)c(F)c1F | 1.6 µg/mL (≈ 4.73 µM) | 1.18 µg/mL (≈ 3.49 µM) | 0.01 µg/mL (≈ 0.0296 µM) | > 200 µg/mL | 44.2% | 0.4 nM | > 200 µg/mL | > 200 µg/mL | 3.12 µg/mL (≈ 9.22 µM) | > 200 µg/mL | 0.8 µg/mL (≈ 2.36 µM) | 90.8% | 1.6 µg/mL (≈ 4.73 µM) | 50 µg/mL (≈ 148 µM)
7 | CC1C(NC(=O)Nc2ccc(F)c(F)c2F)CC2CC1C2(C)C (stereo not given) | 1.6 µg/mL (≈ 4.9 µM) | 16 µg/mL (≈ 49 µM) | 0.02 µg/mL (≈ 0.0613 µM) | > 200 µg/mL | 76.3% | 0.4 nM | > 200 µg/mL | > 200 µg/mL | 3.12 µg/mL (≈ 9.56 µM) | > 200 µg/mL | 0.8 µg/mL (≈ 2.45 µM) | 86.1% | 3.12 µg/mL (≈ 9.56 µM) | > 200 µg/mL
8 | COC(=O)c1ccc(NC(=O)NC23CC4CC(CC(C4)C2)C3)cc1O | > 200 µg/mL | 30.3 µg/mL (≈ 88 µM) | 0.4 µg/mL (≈ 1.16 µM) | > 200 µg/mL | 26.9% | 1.2 nM | > 200 µg/mL | > 200 µg/mL | > 200 µg/mL | > 200 µg/mL | 50 µg/mL (≈ 145 µM) | 79.5% | > 200 µg/mL | > 200 µg/mL
9 | CC(C)(C)NC(=O)NC1C2CC3CC(C2)CC1C3 (stereo not given) | > 200 µg/mL | 372 µg/mL (≈ 1490 µM) | 12.5 µg/mL (≈ 49.9 µM) | > 200 µg/mL | 20.7% | 24.2 nM | > 200 µg/mL | > 200 µg/mL | > 200 µg/mL | > 200 µg/mL | > 200 µg/mL | 55.4% | > 200 µg/mL | > 200 µg/mL
10 | CCCOCCNC(=O)NC12CC3CC(CC(C3)C1)C2 | 200 µg/mL (≈ 713 µM) | 265 µg/mL (≈ 944 µM) | 25 µg/mL (≈ 89.2 µM) | > 200 µg/mL | 16.6% | 243 nM | > 200 µg/mL | > 200 µg/mL | > 200 µg/mL | > 200 µg/mL | 200 µg/mL (≈ 713 µM) | 35% | > 200 µg/mL | > 200 µg/mL
